The record followed here is US20110319424A1, “NAPHTHYRIDIN-2(1H) -ONE COMPOUNDS USEFUL AS ANTIBACTERIALS” (priority 2008, published 2011).

Each structure is given as a SMILES string. ≈ marks a conversion by molar mass, not a printed value. Bounds are passed on as bounds.

The first assay relates to Mycobacterium tuberculosis H37Rv. Briefly: Mycobacterium tuberculosis H37Rv inhibition assay (MIC, resazurin fluorescence). The format is cell-based. Conditions: ATCC 25618 / H37Rv, 144 h, H37Rv strain (ATCC25618), Middlebrook 7H9, six days at 37° C. then resazurin 48 hours.
`COc1cnc2ccc(=O)n(CCN3CCC(NCc4ccc(Cl)c(Cl)c4)CC3)c2c1.Cl` [Example 11b, 1-[2-(4-{[(3,4-Dichlorophenyl)methyl]amino}-1-piperidinyl)ethyl]-7-(methyloxy)-1,5-naphthyridin-2(1H)-one hydrochloride] registered an MIC of no more than 1 µg/mL.

The compound `COc1cnc2ccc(=O)n(CCN3CCC(NCc4ccc(Cl)c(Cl)c4)CC3)c2c1.Cl.Cl` [Example 11c, 1-[2-(4-{[(3,4-Dichlorophenyl)methyl]amino}-1-piperidinyl)ethyl]-7-(methyloxy)-1,5-naphthyridin-2(1H)-one dihvdrochloride] showed an MIC of no more than 1 µg/mL. Compound `COc1cnc2ccc(=O)n(CCN3CCC(NCc4ccc(Cl)cc4)CC3)c2c1` [Example 12, 1-[2-(4-{[(4-Chlorophenyl)methyl]amino}-1-piperidinyl)ethyl]-7-(methyloxy)-1,5-naphthyridin-2(1H)-one] came in with an MIC of no more than 1 µg/mL. In the case of `COc1cnc2ccc(=O)n(CCN3CCC(NCc4ccc(Cl)cc4)CC3)c2c1.Cl.Cl` [Example 12b, 1-[2-(4-{[(4-Chlorophenyl)methyl]amino}-1-piperidinyl)ethyl]-7-(methyloxy)-1,5-naphthyridin-2(1H)-one dihydrochloride], the MIC was no more than 1 µg/mL. In turn, `COc1cnc2ccc(=O)n(CCN3CCC(NCc4ccc(Cl)cc4)CC3)c2c1.Cl` [Example 12c, 1-[2-(4-{[(4-Chlorophenyl)methyl]amino}-1-piperidinyl)ethyl]-7-(methyloxy)-1,5-naphthyridin-2(1H)-one hydrochloride] registered an MIC of no more than 1 µg/mL. `O=c1ccc2ncc(F)cc2n1CCN1CCC(NCc2ccc(F)cc2)CC1` [Example 14, 7-Fluoro-1-[2-(4-{[(4-fluorophenyl)methyl]amino}-1-piperidinyl)ethyl]-1,5-naphthyridin-2(1H)-one] showed an MIC of no more than 2.4 µg/mL.

`O=c1ccc2ncc(F)cc2n1CCN1CCC(NCc2ccc(Br)o2)CC1` [Example 34, 1-[2-(4-{[(5-bromo-2-furanyl)methyl]amino}-1-piperidinyl)ethyl]-7-fluoro-1,5-naphthyridin-2(1H)-one] gave an MIC of no more than 2.4 µg/mL.

In the case of `O=c1ccc2ncc(F)cc2n1CCN1CCC(NCc2cc(Cl)ccc2Cl)CC1` [Example 38, 1-[2-(4-{[(2,5-dichlorophenyl)methyl]amino}-1-piperidinyl)ethyl]-7-fluoro-1,5-naphthyridin-2(1H)-one], the minimal inhibitory concentration (MIC) was no more than 2.4 µg/mL. Compound `O=c1ccc2ncccc2n1CCN1CCC(NCc2ccc(Br)s2)CC1` [Example 48, 1-[2-(4-{[(5-bromo-2-thienyl)methyl]amino}-1-piperidinyl)ethyl]-1,5-naphthyridin-2(1H)-one] showed an MIC of no more than 2.4 µg/mL.

Turning to `O=c1ccc2ncccc2n1CCN1CCC(NCc2cnc(Br)s2)CC1` [Example 49, 1-[2-(4-{[(2-bromo-1,3-thiazol-5-yl)methyl]amino}-1-piperidinyl)ethyl]-1,5-naphthyridin-2(1H)-one], the MIC was no more than 2.4 µg/mL. In turn, `COc1ccc(CNC2CCN(CCn3c(=O)ccc4ncccc43)CC2)cc1Cl` [Example 51, 1-{2-[4-({[3-chloro-4-(methyloxy)phenyl]methyl}amino)-1-piperidinyl]ethyl}-1,5-naphthyridin-2(1H)-one] displayed an MIC of no more than 2.4 µg/mL. For `O=c1ccc2ncccc2n1CCN1CCC(NCc2cccc(Cl)c2)CC1` [Example 57, 1-[2-(4-{[(3-chlorophenyl)methyl]amino}-1-piperidinyl)ethyl]-1,5-naphthyridin-2(1H)-one], the MIC is no more than 2.4 µg/mL.

The compound `COc1cnc2ccc(=O)n(CCN3CCC(NCc4nc(Br)cs4)CC3)c2c1` [Example 64, 1-[2-(4-{[(4-bromo-1,3-thiazol-2-yl)methyl]amino}-1-piperidinyl)ethyl]-7-(methyloxy)-1,5-naphthyridin-2(1H)-one] yielded an MIC of no more than 2.4 µg/mL. Regarding `COc1cnc2ccc(=O)n(CCN3CCC(NCc4ccc(F)c(C)n4)CC3)c2c1` [Example 68, 1-[2-(4-{[(5-fluoro-6-methyl-2-pyridinyl)methyl]amino}-1-piperidinyl)ethyl]-7-(methyloxy)-1,5-naphthyridin-2(1H)-one], the MIC was no more than 2.4 µg/mL.

On to `O=c1ccc2ncccc2n1CCN1CCC(NCc2cc(Br)cs2)CC1` [Example 81, 1-[2-(4-{[(4-bromo-2-thienyl)methyl]amino}-1-piperidinyl)ethyl]-1,5-naphthyridin-2(1H)-one], for which the MIC is no more than 2.4 µg/mL. Same read-out and setting: then `O=c1ccc2ncc(F)cc2n1CCN1CCC(NCc2cccc(Cl)c2)CC1` [Example 103, 1-[2-(4-{[(3-chlorophenyl)methyl]amino}-1-piperidinyl)ethyl]-7-fluoro-1,5-naphthyridin-2(1H)-one], with no more than 2.4 µg/mL. In the case of `COc1cnc2ccc(=O)n(CCN3CCC(NCc4cncc(Cl)n4)CC3)c2c1` [Example 111, 1-[2-(4-{[(6-chloro-2-pyrazinyl)methyl]amino}-1-piperidinyl)ethyl]-7-(methyloxy)-1,5-naphthyridin-2(1H)-one], the MIC is no more than 2.4 µg/mL. With `COc1cnc2ccc(=O)n(CCN3CCC(NCc4ccnc(C(F)(F)F)n4)CC3)c2c1` [Example 113, 7-(methyloxy)-1-{2-[4-({[2-(trifluoromethyl)-4-pyrimidinyl]methyl}amino)-1-piperidinyl]ethyl}-1,5-naphthyridin-2(1H)-one], the MIC was no more than 2.4 µg/mL. On to `COc1cnc2ccc(=O)n(CCN3CCC(NCc4cc(C)cc(C)n4)CC3)c2c1` [Example 114, 1-[2-(4-{[(4,6-dimethyl-2-pyridinyl)methyl]amino}-1-piperidinyl)ethyl]-7-(methyloxy)-1,5-naphthyridin-2(1H)-one], for which the MIC is no more than 2.4 µg/mL. On the same count and under the same terms, then `COc1cnc2ccc(=O)n(CCN3CCC(NCc4ccc(Cl)cn4)CC3)c2c1` [Example 116], with no more than 2.4 µg/mL; and `CC(C)(C)c1ccc(CNC2CCN(CCn3c(=O)ccc4ncc(F)cc43)CC2)cc1` [Example 121, 1-{2-[4-({[4-(1,1-dimethylethyl)phenyl]methyl}amino)-1-piperidinyl]ethyl}-7-fluoro-1,5-naphthyridin-2(1H)-one], with no more than 2.4 µg/mL; and `Cc1cc(CNC2CCN(CCn3c(=O)ccc4ncc(F)cc43)CC2)cnc1C` [Example 125, 1-[2-(4-{[(5,6-dimethyl-3-pyridinyl)methyl]amino}-1-piperidinyl)ethyl]-7-fluoro-1,5-naphthyridin-2(1H)-one], with no more than 2.4 µg/mL. For `Cc1ncc(CN[C@H]2CCN(CCn3c(=O)ccc4ncc(F)cc43)C[C@H]2O)cc1F` [Example 128, 7-fluoro-1-[2-((3R,4S)-4-{[(5-fluoro-6-methyl-3-pyridinyl)methyl]amino}-3-hydroxy-1-piperidinyl)ethyl]-1,5-naphthyridin-2(1H)-one], the MIC was no more than 2.4 µg/mL.

`Cc1ncc(CN[C@H]2CCN(CCn3c(=O)ccc4ncc(F)cc43)C[C@H]2O)cc1Br` [Example 130, 1-[2-((3R,4S)-4-{[(5-bromo-6-methyl-3-pyridinyl)methyl]amino}-3-hydroxy-1-piperidinyl)ethyl]-7-fluoro-1,5-naphthyridin-2(1H)-one] displayed an MIC of no more than 2.4 µg/mL. `CC1(NCc2ccc(C(F)(F)F)nc2)CCN(CCn2c(=O)ccc3ncc(F)cc32)CC1` [Example 131, 7-fluoro-1-{2-[4-methyl-4-({[6-(trifluoromethyl)-3-pyridinyl]methyl}amino)-1-piperidinyl]ethyl}-1,5-naphthyridin-2(1H)-one] displayed an MIC of no more than 2.4 µg/mL.

The compound `COc1cnc2ccc(=O)n(CCN3CCC(C)(NCc4ccc(Cl)c(Cl)c4)CC3)c2c1` [Example 132] had an MIC of no more than 2.4 µg/mL.

The subject of the next assay is gram-positive organisms i) Staphylococcus aureus, ii) Streptococcus pneumoniae, iii) Enterococcus faecalis and gram-negative organisms iv) Haemophilus …. Briefly: General antimicrobial activity assay (whole-cell, CLSI broth microdilution, MIC). In kind it is cell-based. Conditions: organisms i)-vi) of the antimicrobial activity assay. The protocol: (§1) General Antimicrobial Activity Assay
(§2) Whole-cell antimicrobial activity was determined by broth microdilution using the Clinical and Laboratory Standards Institute (CLSI) recommended procedure, Document M7-A7, “Methods for Dilution Susceptibility Tests for Bacteria that Grow Aerobically”. The compounds were tested in serial two-fold dilutions ranging from 0.016 to 64 μg/mL.
(§3) Compounds were evaluated against gram-positive organisms, selected from i) Staphylococcus aureus, ii) Streptococcus pneumoniae, and iii) Enterococcus faecalis. Two compounds were additionally evaluated against Streptococcus pyogenes, and Enterococcus faecium.
(§4) In addition, compounds were evaluated against gram-negative organisms selected from iv) Haemophilus influenzae, v) Moraxella catarrhalis and vi) Escherichia coll. Two compounds were additionally evaluated against Pseudomonas aeruginosa, Proteus mirabilis, Enterobacter cloacae, Enterobacter aerogenes, Klebsiella pneumoniae and Stenotrophomonas maltophilia.
(§5) The minimum inhibitory concentration (MIC) was determined as the lowest concentration of compound that inhibited visible growth. A mirror reader was used to assist in determining the MIC endpoint.
In the case of `O=c1ccc2ncccc2n1CCN1CCC(NCc2cc(Cl)cc(Cl)c2)CC1` [Example 58, 1-[2-(4-{[(3,5-dichlorophenyl)methyl]amino}-1-piperidinyl)ethyl]-1,5-naphthyridin-2(1H)-one], the “activity against organisms i)-vi)” value is recorded as “no activity”.

Test system in a further assay: not listed separately
The assay is described as above. The format is cell-based. Conditions: against a strain of at least one of the organisms listed; broth microdilution, 0.016 to 64 μg/mL. The protocol: as §1, §2, §3, §4, §5
`O=c1ccc2ncc(F)cc2n1CCN1CCC(NCc2ccc(F)cc2)CC1` [Example 14, 7-Fluoro-1-[2-(4-{[(4-fluorophenyl)methyl]amino}-1-piperidinyl)ethyl]-1,5-naphthyridin-2(1H)-one]: the MIC worked out at 4 µg/mL (≈ 10 µM). On to `O=c1ccc2ncccc2n1CCN1CCC(NCc2cccc(Cl)c2)CC1` [Example 57, 1-[2-(4-{[(3-chlorophenyl)methyl]amino}-1-piperidinyl)ethyl]-1,5-naphthyridin-2(1H)-one], for which inhibition of growth (MIC) required 4 µg/mL (≈ 10.1 µM).

With `O=c1ccc2ncc(F)cc2n1CCN1CCC(NCc2nc(Br)cs2)CC1` [Example 60, 1-[2-(4-{[(4-bromo-1,3-thiazol-2-yl)methyl]amino}-1-piperidinyl)ethyl]-7-fluoro-1,5-naphthyridin-2(1H)-one], it took 32 µg/mL (≈ 68.6 µM) to inhibit growth (MIC). In the case of `Cc1ncc(CNC2CCN(CCn3c(=O)ccc4ncc(F)cc43)CC2)[nH]1.O=C(O)C(F)(F)F` [Example 119, 7-fluoro-1-[2-(4-{[(2-methyl-1H-imidazol-4-yl)methyl]amino}-1-piperidinyl)ethyl]-1,5-naphthyridin-2(1H)-one trifluoroacetate], the MIC was greater than 64 µg/mL. `Cc1ncc(CN[C@H]2CCN(CCn3c(=O)ccc4ncc(F)cc43)C[C@H]2O)cc1F` [Example 128, 7-fluoro-1-[2-((3R,4S)-4-{[(5-fluoro-6-methyl-3-pyridinyl)methyl]amino}-3-hydroxy-1-piperidinyl)ethyl]-1,5-naphthyridin-2(1H)-one] showed an MIC of 32 µg/mL (≈ 74.5 µM).
